The text below walks through data of ChEMBL document CHEMBL3045033, “Synthesis of new potential anticancer agents based on 4-thiazolidinone and oleanane scaffolds” (Med Chem Res, 2012).

What all share (assay type): functional
For one experiment, the system named is T47D. The experiment can be described thus: Cytotoxicity against Homo sapiens (human) T47D cells assessed as cellular growth at 10^-5 M after 48 hr by SRB assay relative to untreated control.
The test system of another experiment is SR. The experiment is described as follows: Cytotoxicity against Homo sapiens (human) SR cells assessed as cellular growth at 10^-5 M after 48 hr by SRB assay relative to untreated control. On the technique in general: Sulforhodamine B stains cellular protein and so reports cell mass.
In another experiment the test system is PC-3. The experiment is described as follows: Cytotoxicity against Homo sapiens (human) PC3 cells assessed as cellular growth at 10^-5 M after 48 hr by SRB assay relative to untreated control.
For another experiment, the system named is CCRF-CEM. The experiment can be described thus: Cytotoxicity against Homo sapiens (human) CCRF-CEM cells assessed as cellular growth at 10^-5 M after 48 hr by SRB assay relative to untreated control.
In the next experiment the test system is BT-549. The experiment can be described thus: Cytotoxicity against Homo sapiens (human) BT549 cells assessed as cellular growth at 10^-5 M after 48 hr by SRB assay relative to untreated control.
A further experiment relates to SF-295. The experiment is described as follows: Cytotoxicity against Homo sapiens (human) SF295 cells assessed as cellular growth at 10^-5 M after 48 hr by SRB assay relative to untreated control.
For a further experiment, the system named is IGROV-1. The experiment is described as follows: Cytotoxicity against Homo sapiens (human) IGROV1 cells assessed as cellular growth at 10^-5 M after 48 hr by SRB assay relative to untreated control.
Another experiment relates to K562. The experiment is described as follows: Cytotoxicity against Homo sapiens (human) K562 cells assessed as cellular growth at 10^-5 M after 48 hr by SRB assay relative to untreated control.
Another experiment concerns HL-60(TB). The experiment is described as follows: Cytotoxicity against Homo sapiens (human) HL-60(TB) cells assessed as cellular growth at 10^-5 M after 48 hr by SRB assay relative to untreated control.
The subject of a further experiment is RPMI-8226. The experiment is described as follows: Cytotoxicity against Homo sapiens (human) RPMI8226 cells assessed as cellular growth at 10^-5 M after 48 hr by SRB assay relative to untreated control.
The test system of a further experiment is COLO 205. The experiment is described as follows: Cytotoxicity against Homo sapiens (human) COLO205 cells assessed as cellular growth at 10^-5 M after 48 hr by SRB assay relative to untreated control.
In a further experiment the test system is SK-OV-3. The experiment is described as follows: Cytotoxicity against Homo sapiens (human) SKOV3 cells assessed as cellular growth at 10^-5 M after 48 hr by SRB assay relative to untreated control.

As for `COC(=O)[C@]12CCC(C)(C)C[C@H]1C1=CC[C@@H]3[C@@]4(C)CCC(=O)C(C)(C)[C@@H]4CC[C@@]3(C)[C@]1(C)CC2`, the Activity was found to be 75.65% with T47D, 63.87% in the experiment with SR and 85.25% in the experiment with PC-3.

As to `COC(=O)[C@]12CCC(C)(C)C[C@H]1C1=CC[C@@H]3[C@@]4(C)CC/C(=N\OC(=O)CN5C(=O)CSC5=S)C(C)(C)[C@@H]4CC[C@@]3(C)[C@]1(C)CC2`, the Activity in the experiment with CCRF-CEM is on record as 56.34%.

`COC(=O)[C@]12CCC(C)(C)C[C@H]1C1=CC[C@@H]3[C@@]4(C)CC/C(=N\OC(=O)CCCCCN5C(=O)CSC5=S)C(C)(C)[C@@H]4CC[C@@]3(C)[C@]1(C)CC2`: the Activity was determined as 76.91% in the experiment on T47D and 42.83% in the experiment on SR.

`COC(=O)[C@]12CCC(C)(C)C[C@H]1C1=CC[C@@H]3[C@@]4(C)CC/C(=N\OC(=O)CN5C(=O)/C(=C/c6ccc(OC)cc6)SC5=S)C(C)(C)[C@@H]4CC[C@@]3(C)[C@]1(C)CC2`: the Activity in the experiment with BT-549 is 67.36%; in the experiment on SF-295, 72.97%.

On to `COC(=O)[C@]12CCC(C)(C)C[C@H]1C1=CC[C@@H]3[C@@]4(C)CC/C(=N\OC(=O)CCN5C(=O)/C(=C/c6ccc(N(C)C)cc6)SC5=S)C(C)(C)[C@@H]4CC[C@@]3(C)[C@]1(C)CC2`, for which the Activity in the experiment with IGROV-1 worked out at 82.21%.

For the compound `CC1(C)CC[C@]2(C(=O)O)CC[C@]3(C)C(=CC[C@@H]4[C@@]5(C)CC/C(=N\OC(=O)CC6SC(=O)NC6=O)C(C)(C)[C@@H]5CC[C@]43C)[C@@H]2C1` (some centres undefined), the values for the Activity in the experiment with K562 and in the experiment with SR were 54.55% and 54.18%, respectively.

With `CC1(C)CC[C@]2(C(=O)N3CCOCC3)CC[C@]3(C)C(=CC[C@@H]4[C@@]5(C)CC/C(=N\OC(=O)CC6SC(=O)NC6=O)C(C)(C)[C@@H]5CC[C@]43C)[C@@H]2C1` (some centres undefined), the Activity in the experiment with HL-60(TB) was 42.47%; in the experiment on RPMI-8226, 21.46%; with T47D it was 29.41%; with SR, 48.74%.

Regarding `CC1(C)CC[C@@]23CC[C@]4(C)[C@@](OC2=O)([C@@H]3C1)[C@@H](Br)C[C@@H]1[C@@]2(C)CC/C(=N\OC(=O)/C=C3/SC(=O)NC3=O)C(C)(C)[C@@H]2CC[C@]14C`, the Activity was determined as 26.14% in the experiment with HL-60(TB); 26.82% with RPMI-8226; 24.85% with T47D; 27.12% with K562; 29.41% with SR.

As to `CC1(C)CC[C@@]23CC[C@]4(C)[C@@](OC2=O)([C@@H]3C1)[C@@H](Br)C[C@@H]1[C@@]2(C)CCC(=O)C(C)(C)[C@@H]2CC[C@]14C`, the Activity with COLO 205 amounted to 302.68%; with SF-295, 270.75%; with SK-OV-3, 335.31%; in the experiment with K562 it was 78.11%.
